Results published in paper PMC9928118, “Funneling modulatory peptide design with generative models: Discovery and characterization of disruptors of calcineurin protein-protein interactions” (PLOS Computational Biology, 2023).

Test system: GST-tagged Cn
Experiment: PEPperPRINT peptide microarray binding assay with GST-tagged Cn
Summary of the method: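 Qualitative binding: peptides printed on a PEPperPRINT microarray were incubated overnight at 4 °C with 1 mg/ml GST-tagged Cn, then detected with Alexa-Fluor 647 anti-GST antibody. Log fluorescence was baseline-corrected, averaged over duplicate spots, Z-normalized and averaged across five repeats.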

[1] = max over the spots listed under Location on chip
[2] = mean over the spots listed under Location on chip
[3] = GST-tagged Cn, max over the chip spots listed under Location on chip
[4] = GST-tagged Cn, mean over the chip spots listed under Location on chip
[5] = max over the chip locations listed for the peptide (two spots)
[6] = mean over the chip locations listed for the peptide (two spots)
[7] = GST-tagged Cn, max over the spots on the chip (two locations)
[8] = GST-tagged Cn, mean over the spots on the chip (two locations)
[9] = GST-tagged Cn, max over the spots named in Location on chip
[10] = GST-tagged Cn, mean over the spots named in Location on chip
[11] = GST-tagged Cn, max over the chip locations
[12] = GST-tagged Cn, mean over the chip locations

TFWTNPQFRIHLEEED [SeqRBMlowT_251]
Chip Fluorescence (max) [1]: 2.844 | Chip Fluorescence (mean) [2]: 1.205

TFWTNPQFRIKLEDPD [SeqRBMlowT_91]
Chip Fluorescence (max) [1]: 2.652 | Chip Fluorescence (mean) [2]: 0.4239

TFWTNPQFRIKLEDVD [SeqRBMlowT_2]
Chip Fluorescence (max) [3]: 0.5307 | Chip Fluorescence (mean) [4]: -0.7635

TFWTNPQFRIKLEEVD [SeqRBMlowT_2987]
Chip Fluorescence (max) [5]: 3.672 | Chip Fluorescence (mean) [6]: 2.469

TFWTNPQFRIKVEDPD [SeqRBMlowT_6818]
Chip Fluorescence (max) [7]: 1.08 | Chip Fluorescence (mean) [8]: -0.755

TFWTNPQFRITLDSPD [SeqRBMlowT_5998]
Chip Fluorescence (max) [1]: 2.88 | Chip Fluorescence (mean) [2]: 0.5672

TFWTNPQFRITLEDPD [SeqRBMlowT_31]
Chip Fluorescence (max) [1]: 2.946 | Chip Fluorescence (mean) [2]: 1.658

TFWTNPQFRITLEDVD [SeqRBMlowT_966]
Chip Fluorescence (max) [1]: 2.9488 | Chip Fluorescence (mean) [2]: 0.108

TFWTNPQFRITLEEED [SeqRBMlowT_658]
Chip Fluorescence (max) [5]: 4.839 | Chip Fluorescence (mean) [6]: 1.41

TFWTNPQFRITLEEVD [SeqRBMlowT_245]
Chip Fluorescence (max) [1]: 2.7449 | Chip Fluorescence (mean) [2]: 0.8824

TFWTNPQFRITVTDPD [SeqRBMlowT_669]
Chip Fluorescence (max) [1]: 2.934 | Chip Fluorescence (mean) [2]: 1.6891

TFWTNPQFRLKIPQVD [SeqRBMlowT_93]
Chip Fluorescence (max) [1]: 3.328 | Chip Fluorescence (mean) [2]: 1.497

TFWTNPQFRLKLEDPD [SeqRBMlowT_699]
Chip Fluorescence (max) [3]: 0.8365 | Chip Fluorescence (mean) [4]: -0.3514

TFWTNPQFRLKLEEVD [SeqRBMlowT_5628]
Chip Fluorescence (max) [5]: 7.691 | Chip Fluorescence (mean) [6]: 2.027

TFWTNPQFRLKLIDPD [SeqRBMlowT_9197]
Chip Fluorescence (max) [9]: 1.422 | Chip Fluorescence (mean) [10]: -0.7542

TFWTNPQFRLKLVDVD [SeqRBMlowT_5534]
Chip Fluorescence (max) [5]: 3.886 | Chip Fluorescence (mean) [6]: 0.4656

TFWTNPQFRLKVVDPD [SeqRBMlowT_7375]
Chip Fluorescence (max) [9]: 1.609 | Chip Fluorescence (mean) [10]: 0.5158

TFWTNPQFRLTLLSPD [SeqRBMlowT_9173]
Chip Fluorescence (max) [7]: 1.238 | Chip Fluorescence (mean) [8]: 0.4236

TFWTNPQFRVKLEDPD [SeqRBMlowT_223]
Chip Fluorescence (max) [3]: 0.479 | Chip Fluorescence (mean) [4]: -1.105

TFWTNPQFRVKLEEPD [SeqRBMlowT_201]
Chip Fluorescence (max) [3]: 0.5145 | Chip Fluorescence (mean) [4]: -0.7212

TFWTNPQFRVTLTEPD [SeqRBMlowT_9005]
Chip Fluorescence (max) [5]: 5.558 | Chip Fluorescence (mean) [6]: 0.117

TFWTNPQFRVTVTEPD [SeqRBMlowT_4663]
Chip Fluorescence (max) [11]: 0.1471 | Chip Fluorescence (mean) [12]: -0.7824

TFWTNPQFTITLEEPD [SeqRBMlowT_1494]
Chip Fluorescence (max) [9]: 1.659 | Chip Fluorescence (mean) [10]: -0.5285

TFWTNPQFVITLEEVD [SeqRBMlowT_928]
Chip Fluorescence (max) [1]: 3.091 | Chip Fluorescence (mean) [2]: 0.8732

TFWTNPQFVTLVKDGD [SeqRBM_8117]
Chip Fluorescence (max) [7]: 1.011 | Chip Fluorescence (mean) [8]: -0.2929

TFWTNPQFVVSLEEPD [SeqRBMlowT_8096]
Chip Fluorescence (max) [7]: 1.137 | Chip Fluorescence (mean) [8]: -0.6823

TFWTNPQFVVSLPEPD [SeqRBMlowT_3270]
Chip Fluorescence (max) [3]: 0.9379 | Chip Fluorescence (mean) [4]: -0.001001

TFWTNPQIKLSLTEKD [SeqCAPN11_Camelus_ferus]
Chip Fluorescence (max) [1]: 3.072 | Chip Fluorescence (mean) [2]: 1.377

TFWTNPQYKIKLEDPD [SeqRBMlowT_629]
Chip Fluorescence (max) [3]: 0.8637 | Chip Fluorescence (mean) [4]: -0.07489

TFWTNPQYKIKLEEPD [SeqRBMlowT_46]
Chip Fluorescence (max) [3]: 0.956 | Chip Fluorescence (mean) [4]: -0.7275

TFWTNPQYKITLEEDD [SeqRBMlowT_9018]
Chip Fluorescence (max) [1]: 2.666 | Chip Fluorescence (mean) [2]: -0.09775

TFWTNPQYKITLEEED [SeqRBMlowT_3204]
Chip Fluorescence (max) [1]: 3.2 | Chip Fluorescence (mean) [2]: 1.112

TFWTNPQYKITLEEPD [SeqRBMlowT_54]
Chip Fluorescence (max) [7]: 1.133 | Chip Fluorescence (mean) [8]: -0.8126

TFWTNPQYKVKLEDPD [SeqRBMlowT_2919]
Chip Fluorescence (max) [3]: 0.9474 | Chip Fluorescence (mean) [4]: 0.1413

TFWTNPQYKVKLEEED [SeqRBMlowT_252]
Chip Fluorescence (max) [7]: 1.065 | Chip Fluorescence (mean) [8]: 0.727

TFWTNPQYRIKLEEAD [SeqRBMlowT_241]
Chip Fluorescence (max) [1]: 3.006 | Chip Fluorescence (mean) [2]: 0.9242

TFWTNPQYRIKLEEED [SeqRBMlowT_1298]
Chip Fluorescence (max) [9]: 1.462 | Chip Fluorescence (mean) [10]: 0.439

TFWTNPQYRIKLEEPD [SeqRBMlowT_34]
Chip Fluorescence (max) [11]: 0.1832 | Chip Fluorescence (mean) [12]: -0.5691

TFWTNPQYRIKLTDAD [SeqRBMlowT_4313]
Chip Fluorescence (max) [3]: 0.4524 | Chip Fluorescence (mean) [4]: -0.5715

TFWTNPQYRIKLTEPD [SeqRBMlowT_234]
Chip Fluorescence (max) [3]: 0.5195 | Chip Fluorescence (mean) [4]: -0.7647

TFWTNPQYRIKVTDPD [SeqRBMlowT_12]
Chip Fluorescence (max) [11]: -0.2746 | Chip Fluorescence (mean) [12]: -1.188

TFWTNPQYRITLDSSD [SeqRBMlowT_972]
Chip Fluorescence (max) [9]: 1.828 | Chip Fluorescence (mean) [10]: -0.3429

TFWTNPQYRITLEDED [SeqRBMlowT_1185]
Chip Fluorescence (max) [5]: 4.604 | Chip Fluorescence (mean) [6]: 0.2377

TFWTNPQYRITLEDVD [SeqRBMlowT_4237]
Chip Fluorescence (max) [7]: 1.081 | Chip Fluorescence (mean) [8]: 0.5254

TFWTNPQYRITLEEED [SeqRBMlowT_1109]
Chip Fluorescence (max) [1]: 3.384 | Chip Fluorescence (mean) [2]: 0.265

TFWTNPQYRITLEELD [SeqRBMlowT_2291]
Chip Fluorescence (max) [5]: 5.53 | Chip Fluorescence (mean) [6]: 0.9297

TFWTNPQYRITLEEPD [SeqRBMlowT_212]
Chip Fluorescence (max) [7]: 1.104 | Chip Fluorescence (mean) [8]: 0.3317

TFWTNPQYRITLEEVD [SeqRBMlowT_98]
Chip Fluorescence (max) [3]: 0.8765 | Chip Fluorescence (mean) [4]: 0.0532

TFWTNPQYRITLTDVD [SeqRBMlowT_7188]
Chip Fluorescence (max) [3]: 0.6928 | Chip Fluorescence (mean) [4]: -1.3023

TFWTNPQYRITVTDAD [SeqRBMlowT_620]
Chip Fluorescence (max) [1]: 2.815 | Chip Fluorescence (mean) [2]: 0.3496

TFWTNPQYRITVTDED [SeqRBMlowT_7478]
Chip Fluorescence (max) [3]: 0.9083 | Chip Fluorescence (mean) [4]: -0.5067

TFWTNPQYRITVTDPD [SeqRBMlowT_65]
Chip Fluorescence (max) [11]: 0.2441 | Chip Fluorescence (mean) [12]: -1.026

TFWTNPQYRITVTEPD [SeqRBMlowT_7465]
Chip Fluorescence (max) [3]: 0.8889 | Chip Fluorescence (mean) [4]: -0.4265

TFWTNPQYRLKIPDPD [SeqRBMlowT_280]
Chip Fluorescence (max) [1]: 2.677 | Chip Fluorescence (mean) [2]: 0.4774

TFWTNPQYRLKIPQVD [SeqRBMlowT_9671]
Chip Fluorescence (max) [3]: 0.5794 | Chip Fluorescence (mean) [4]: -0.5687

TFWTNPQYRLKLEDPD [SeqRBMlowT_1296]
Chip Fluorescence (max) [5]: 7.375 | Chip Fluorescence (mean) [6]: 1.564

TFWTNPQYRLKLEDVD [SeqRBMlowT_929]
Chip Fluorescence (max) [5]: 6.02 | Chip Fluorescence (mean) [6]: 1.294

TFWTNPQYRLKLEEVD [SeqRBMlowT_1143]
Chip Fluorescence (max) [7]: 1.092 | Chip Fluorescence (mean) [8]: 0.4965

TFWTNPQYRLKLLEED [SeqCAPN11_Tupaia_chinensis]
Chip Fluorescence (max) [5]: 4.428 | Chip Fluorescence (mean) [6]: 0.5574
